For the first experiment, the system named is MDA-MB-231 human breast cancer cells. Put plainly: Proliferation assay MDA-MB-231 (crystal violet). The note with it: Homo sapiens, MDA-MB-231, 96 h, MDA-MB-231 cells, 4 days, median, read-out: Prolif-MDA MB231 IC50 - [mol/l] (median). In kind it is cell-based. As to the method:
4. Proliferation assay: MDA-MB-231, CAL-120
Human tumour cells were originally obtained from the American Type Culture Collection (ATCC), or from the Deutsche Sammlung von Mikroorganismen and Zellkulturen (DSMZ, German Collection of Microorganisms and Cell Cultures). Cultivated tumour cells (CAL-120, human breast adenocarcinoma cells, DSMZ ACC-459; MDA-M B-231, human breast cancer cells, ATCC HTB-26) were plated at a density of 4,000 cells/well in a 96-well multititer plate in 200 microL of their respective growth medium supplemented 10% fetal calf serum. After 24 hours, the cells of one plate (zero-point plate) were stained with crystal violet (see below), while the medium of the other plates was supplemented with the test substances in various concentrations (0 micromol/L, as well as in the range of 0.01-10 micromol/L; the final concentration of the solvent dimethyl sulfoxide was adjusted to 0.1%) using a Tecan HP D300 Digital Dispenser. The cells were incubated for 4 days in the presence of test substances. Cell proliferation was determined by staining the cells with crystal violet: the cells were fixed by adding 20 microL/measuring point of an 11% glutaric aldehyde solution for 15 minutes at room temperature. After three washing cycles of the fixed cells with water, the plates were dried at room temperature. The cells were stained by adding 100 microL/measuring point of a 0.1% crystal violet solution (pH 3.0). After three washing cycles of the stained cells with water, the plates were dried at room temperature. The dye was dissolved by adding 100 microL/measuring point of a 10% acetic acid solution. The extinction was determined by photometry at a wavelength of 595 nm. The change of cell number, in percent, was calculated by normalization of the measured values to the extinction values of the zero-point plate(=0%) and the extinction of the untreated (0 μM) cells(=100%). The IC50 values (inhibitory concentration at 50% of maximal effect) were determined by means of a 4 parameter fit.
Take `CN1CCCC(n2nc(NCc3nc4ccccc4[nH]3)c3ncc(C4CC4)nc32)CC1` (racemic) [Example 34, (±)-N-[(1H-benzimidazol-2-yl)methyl]-6-cyclopropyl-1-(1-methylazepan-4-yl)-1H-pyrazolo[3,4-b]pyrazin-3-amine]: the IC50 was determined as 38.8 nM.
Consider `CN1CCC(n2nc(NCc3nc4ccccc4[nH]3)c3ncc(C4CC4)nc32)C1` (racemic) [Example 35, (±)-N-[(1H-benzimidazol-2-yl)methyl]-6-cyclopropyl-1-(1-methylpyrrolidin-3-yl)-1H-pyrazolo[3,4-b]pyrazin-3-amine], for which the IC50 worked out at 59.5 nM.
Take `COCCC(C)n1nc(NCc2nc3ccccc3[nH]2)c2ncc(C3CC3)nc21` (racemic) [Example 57, (±)-N-[(1H-benzimidazol-2-yl)methyl]-6-cyclopropyl-1-(4-methoxybutan-2-yl)-1H-pyrazolo[3,4-b]pyrazin-3-amine]: the IC50 came out at 241 nM.
Consider `CC(CCN(C)C)n1nc(NCc2nc3ccccc3[nH]2)c2ncc(C3CC3)nc21` (racemic) [Example 62, (±)-N-[(1H-benzimidazol-2-yl)methyl]-6-cyclopropyl-1-[4-(dimethylamino)butan-2-yl]-1H-pyrazolo[3,4-b]pyrazin-3-amine], for which the IC50 came to 873 nM.
Regarding `c1ccc2[nH]c(CNc3nn(C4CCOC4)c4nc(C5CC5)cnc34)nc2c1` (single isomer, unassigned) [Example 17, (+) or (−)-N-[(1H-benzimidazol-2-yl)methyl]-6-cyclopropyl-1-(oxolan-3-yl)-1H-pyrazolo[3,4-b]pyrazin-3-amine], the IC50 was found to be 137 nM.
Take `CN1CCC(n2nc(NCc3nc4c(F)c(F)ccc4[nH]3)c3ncc(C4CC4)nc32)CC1` [Example 9, 6-cyclopropyl-N-[(4,5-difluoro-1H-benzimidazol-2-yl)methyl]-1-(1-methylpiperidin-4-yl)-1H-pyrazolo[3,4-b]pyrazin-3-amine]: the IC50 is 41.2 nM.
For `CC(C)(C)OC(=O)N1CCC(n2nc(NCc3nc4ccccc4[nH]3)c3ncc(C4CC4)nc32)CC1` [Example 11, tert-butyl 4-(3-{[(1H-benzimidazol-2-yl)methyl]amino}-6-cyclopropyl-1H-pyrazolo[3,4-b]pyrazin-1-yl)piperidine-1-carboxylate], the IC50 worked out at 176 nM.
Turning to `CN1CCC(n2nc(NCc3nc4c(Br)cccc4[nH]3)c3ncc(C4CC4)nc32)CC1` [Example 20, N-[(4-bromo-1H-benzimidazol-2-yl)methyl]-6-cyclopropyl-1-(1-methylpiperidin-4-yl)-1H-pyrazolo[3,4-b]pyrazin-3-amine], the IC50 is 14.4 nM.
Same read-out and setting: under `Cc1c(Cl)ccc2[nH]c(CNc3nn(C4CCN(C)CC4)c4nc(C5CC5)cnc34)nc12` [Example 21, N-[(5-chloro-4-methyl-1H-benzimidazol-2-yl)methyl]-6-cyclopropyl-1-(1-methylpiperidin-4-yl)-1H-pyrazolo[3,4-b]pyrazin-3-amine] stands 11.3 nM; under `CN1CCC(n2nc(NCc3nc4cc(Cl)ccc4[nH]3)c3ncc(C4CC4)nc32)CC1` [Example 22, N-[(5-chloro-1H-benzimidazol-2-yl)methyl]-6-cyclopropyl-1-(1-methylpiperidin-4-yl)-1H-pyrazolo[3,4-b]pyrazin-3-amine], 8.02 nM.
Still for that read-out and setting: under `Fc1cccc2[nH]c(CNc3nn(C4CCOCC4)c4nc(C5CC5)cnc34)nc12` [Example 23, 6-cyclopropyl-N-[(4-fluoro-1H-benzimidazol-2-yl)methyl]-1-(oxan-4-yl)-1H-pyrazolo[3,4-b]pyrazin-3-amine] stands 28.6 nM.
Still for that read-out and setting: under `Cc1c(F)ccc2[nH]c(CNc3nn(C4CCN(C)CC4)c4nc(C5CC5)cnc34)nc12` [Example 26, 6-cyclopropyl-N-[(5-fluoro-4-methyl-1H-benzimidazol-2-yl)methyl]-1-(1-methylpiperidin-4-yl)-1H-pyrazolo[3,4-b]pyrazin-3-amine] stands 22.2 nM.
Regarding `Cc1ccc2[nH]c(CNc3nn(C4CCN(C)CC4)c4nc(C5CC5)cnc34)nc2c1C` [Example 28, 6-cyclopropyl-N-[(4,5-dimethyl-1H-benzimidazol-2-yl)methyl]-1-(1-methylpiperidin-4-yl)-1H-pyrazolo[3,4-b]pyrazin-3-amine], the IC50 turned out to be 19.9 nM.
Still for that read-out and setting: under `CN1CCC(n2nc(NCc3nc4cc(Cl)c(F)cc4[nH]3)c3ncc(C4CC4)nc32)CC1` [Example 29, N-[(5-chloro-6-fluoro-1H-benzimidazol-2-yl)methyl]-6-cyclopropyl-1-(1-methylpiperidin-4-yl)-1H-pyrazolo[3,4-b]pyrazin-3-amine] stands 14.5 nM; under `CN1CCC(n2nc(NCc3nc4cc(F)c(F)cc4[nH]3)c3ncc(C4CC4)nc32)CC1` [Example 30, 6-cyclopropyl-N-[(5,6-difluoro-1H-benzimidazol-2-yl)methyl]-1-(1-methylpiperidin-4-yl)-1H-pyrazolo[3,4-b]pyrazin-3-amine], 29.9 nM; under `CN1CCC(n2nc(NCc3nc4c(Cl)c(F)ccc4[nH]3)c3ncc(C4CC4)nc32)CC1` [Example 31, N-[(4-chloro-5-fluoro-1H-benzimidazol-2-yl)methyl]-6-cyclopropyl-1-(1-methylpiperidin-4-yl)-1H-pyrazolo[3,4-b]pyrazin-3-amine], 18.2 nM.
As for `Cc1cccc2[nH]c(CNc3nn(C4CCOCC4)c4nc(C5CC5)cnc34)nc12` [Example 33, 6-cyclopropyl-N-[(4-methyl-1H-benzimidazol-2-yl)methyl]-1-(oxan-4-yl)-1H-pyrazolo[3,4-b]pyrazin-3-amine], the IC50 came to 37 nM.
In the case of `FC1(F)CCC(n2nc(NCc3nc4ccccc4[nH]3)c3ncc(C4CC4)nc32)CC1` [Example 36, N-[(1H-benzimidazol-2-yl)methyl]-6-cyclopropyl-1-(4,4-difluorocyclohexyl)-1H-pyrazolo[3,4-b]pyrazin-3-amine], the IC50 turned out to be 114 nM.
The same measure, in the same setting: under `OCCCn1nc(NCc2nc3ccccc3[nH]2)c2ncc(C3CC3)nc21` [Example 60, 3-(3-{[(1H-benzimidazol-2-yl)methyl]amino}-6-cyclopropyl-1H-pyrazolo[3,4-b]pyrazin-1-yl)propan-1-ol] stands 235 nM; under `COCCCn1nc(NCc2nc3ccccc3[nH]2)c2ncc(C3CC3)nc21` [Example 61, N-[(1H-benzimidazol-2-yl)methyl]-6-cyclopropyl-1-(3-methoxypropyl)-1H-pyrazolo[3,4-b]pyrazin-3-amine], 335 nM.

Still in this experiment, the particulars now being: MDA-MB-231 cells, 4 days, median, read-out: Prolif-MDA MB231 IC50 - [mol/l] (median).
On to `c1ccc2[nH]c(CNc3nn(C4CCOC4)c4nc(C5CC5)cnc34)nc2c1` (single isomer, unassigned) [Example 18, (-) or (+) -N-[(1H-benzimidazol-2-yl)methyl]-6-cyclopropyl-1-[oxolan-3-yl]-1H-pyrazolo[3,4-b]pyrazin-3-amine], for which the IC50 stood at 151 nM.
The same measure, in the same setting: under `CN1CCCC(n2nc(NCc3nc4ccccc4[nH]3)c3ncc(C4CC4)nc32)CC1` (single isomer, unassigned) [Example 38, (−) or (+)-N-[(1H-benzimidazol-2-yl)methyl]-6-cyclopropyl-1-[(4R*)-1-methylazepan-4-yl]-1H-pyrazolo[3,4-b]pyrazin-3-amine] stands 46.5 nM; under `CC(CCN(C)C)n1nc(NCc2nc3ccccc3[nH]2)c2ncc(C3CC3)nc21` (single isomer, unassigned) [Example 63, (+) or (−)-N-[(1H-benzimidazol-2-yl)methyl]-6-cyclopropyl-1-[4-(dimethylamino)butan-2-yl]-1H-pyrazolo[3,4-b]pyrazin-3-amine], 1780 nM.
`CC(CCN(C)C)n1nc(NCc2nc3ccccc3[nH]2)c2ncc(C3CC3)nc21` (single isomer, unassigned) [Example 64, (−) or(+)-N-[(1H-benzimidazol-2-yl)methyl]-6-cyclopropyl-1-[4-(dimethylamino)butan-2-yl]-1H-pyrazolo[3,4-b]pyrazin-3-amine]: the IC50 was 536 nM.
Same read-out and setting: under `CN1CCC(n2nc(NCc3nc4ccccc4[nH]3)c3ncc(C4CC4)nc32)C1` (single isomer, unassigned) [Example 78, (+) or (−)-N-[(1H-benzimidazol-2-yl)methyl]-6-cyclopropyl-1-(1-methylpyrrolidin-3-yl)-1H-pyrazolo[3,4-b]pyrazin-3-amine] stands 34.7 nM.
Still for that read-out and setting: under `CN1CCC(n2nc(NCc3nc4ccccc4[nH]3)c3ncc(C4CC4)nc32)C1` (single isomer, unassigned) [Example 79, (−) or (+)-N-[(1H-benzimidazol-2-yl)methyl]-6-cyclopropyl-1-(1-methylpyrrolidin-3-yl)-1H-pyrazolo[3,4-b]pyrazin-3-amine] stands 217 nM.

(Values after patent publication US20230192700A1, “PYRAZOLOPYRAZINES ACTING ON CANCERS VIA INHIBITION OF CDK12” (Bayer Aktiengesellschaft, priority 2020, published 2023).)
